Measurements reported in PMC2972219, “Ionotropic Glutamate Receptor AMPA 1 Is Associated with Ovulation Rate” (PLoS ONE, 2010).

What was measured:
[1] = biological target: GRIA1 (brain membrane fraction of S/N cows); assay: [3H]AMPA ligand binding assay, membrane fractions from brain of S/N cows; parameters: species or system bovine; details: saturation binding of [3H]AMPA 1-200 nM, n = 3
Experimental: (§1) Membrane fractions were extracted from bovine brain as described previously, and 25 µg of protein were resolved by SDS-PAGE and transferred to polyvinylidene difluoride membranes. The blots were incubated with rabbit polyclonal antibody to GRIA1 (1∶1000, AB1504, Millipore, Tokyo, Japan) or actin (1∶200, A2066, Sigma-Aldrich, St. Louis, MO).
(§2) Protein (500 µg/ml) was used for a ligand binding assay with [^3H] AMPA (392.2 GBq/mmol, 1–200 nM) as described previously. Non-specific binding obtained by incubating 1 mM L- glutamate in the binding assay was subtracted from total binding to yield specific [^3H] AMPA- binding.

[2] = tested on: LH release; parameters: method as in PMID 9331548; details: infusion into the third cerebral ventricle, ovariectomized estrogen-primed adult female rats; cited from earlier work
[3] = biological target: GRIA1^Ser (brain membrane fraction of S/S cows); assay: [3H]AMPA ligand binding assay, membrane fractions from brain of S/S cows; parameters: species or system bovine; details: saturation binding of [3H]AMPA 1-200 nM, n = 3
Experimental: as §1, §2

[4] = biological target: GRIA1^Asn (brain membrane fraction of N/N cows); assay: [3H]AMPA ligand binding assay, membrane fractions from brain of N/N cows; parameters: species or system bovine; details: saturation binding of [3H]AMPA 1-200 nM, n = 3
Experimental: as §1, §2

[5] = tested on: GRIA1^Ser with GRIA2; assay: Whole-cell current responses in Xenopus oocytes coexpressing GRIA1^Ser with GRIA2; assay type: cell-based, bovine; details: Xenopus oocytes expressing GRIA1^Ser coexpressed with GRIA2, n = 8; read-out: EC50 of current response
Experimental: (§3) Bovine GRIA1 mRNAs were synthesized using mMESSAGE mMACHINE® SP6 Kit (Applied Biosystems) and injected into Xenopus oocytes as described previously. Whole-cell current responses to 1, 3, 10, 30, 100, and 300 µM glutamate were recorded as described previously.

[6] = biological target: T1, GRIA1^Asn (Bos taurus, UniProt G0T3G6, S306N); assay: Whole-cell current responses in Xenopus oocytes injected with GRIA1^Asn mRNA; assay type: cell-based, bovine; details: Xenopus oocytes expressing GRIA1^Asn alone, glutamate 1-300 µM, n = 9; read-out: EC50 of current response
T1 construct: expressed in transfected cells; host or cells: Xenopus oocytes (mRNA injection)
T1 sequence (G0T3G6 19-906 S306N): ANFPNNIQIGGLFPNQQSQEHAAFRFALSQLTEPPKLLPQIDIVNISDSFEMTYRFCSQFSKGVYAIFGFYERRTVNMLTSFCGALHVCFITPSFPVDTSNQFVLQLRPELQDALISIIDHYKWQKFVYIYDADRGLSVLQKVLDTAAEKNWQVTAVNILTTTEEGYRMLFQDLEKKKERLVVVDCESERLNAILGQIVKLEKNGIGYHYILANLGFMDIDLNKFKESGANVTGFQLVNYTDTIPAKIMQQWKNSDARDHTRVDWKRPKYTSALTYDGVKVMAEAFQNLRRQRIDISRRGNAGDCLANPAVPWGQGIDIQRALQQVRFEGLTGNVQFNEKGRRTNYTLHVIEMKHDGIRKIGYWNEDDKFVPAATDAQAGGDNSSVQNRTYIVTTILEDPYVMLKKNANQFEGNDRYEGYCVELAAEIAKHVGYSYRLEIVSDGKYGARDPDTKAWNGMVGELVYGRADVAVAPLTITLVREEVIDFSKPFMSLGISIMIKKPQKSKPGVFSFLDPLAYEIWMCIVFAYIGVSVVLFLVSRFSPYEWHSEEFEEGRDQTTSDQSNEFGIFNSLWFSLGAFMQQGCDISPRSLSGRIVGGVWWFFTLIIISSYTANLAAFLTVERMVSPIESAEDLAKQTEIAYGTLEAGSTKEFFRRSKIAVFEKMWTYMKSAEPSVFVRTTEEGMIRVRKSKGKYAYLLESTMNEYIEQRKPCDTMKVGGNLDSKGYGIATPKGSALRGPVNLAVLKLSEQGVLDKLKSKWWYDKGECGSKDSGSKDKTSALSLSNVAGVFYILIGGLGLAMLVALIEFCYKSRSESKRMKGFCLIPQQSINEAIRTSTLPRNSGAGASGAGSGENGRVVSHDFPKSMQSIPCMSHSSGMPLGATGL
Experimental: as §3

[7] = tested on: GT1-7 cells expressing GRIA1^Ser; assay: GnRH release from GT1-7 cells expressing GRIA1 (enzyme immunoassay); assay type: cell-based, murine; details: 100 µM glutamate for 30 min, GT1-7 cells expressing GRIA1^Ser compared with GRIA1^Asn
Experimental: We amplified bovine GRIA1 that had been cloned into pTracer-nucGFP with primers GRIA1InFusionF and R and then switched into pCAGGS (N-R) using the In-Fusion™ Advantage PCR Cloning Kit (Takara Bio Inc., Shiga, Japan) to produce HA-tagged protein under the control of a ubiquitous strong promoter that was based on the β-actin promoter.
GT1-7 cells were cultured in six-well dishes coated with poly-L-ornithine (BD Biocoat [PLO/LM] 354658, Becton Dickinson and Company, Franklin Lakes, NJ) with conditioned-Dulbecco's modified Eagles medium (C-MEM), which was comprised of a 1∶1 mixture of conditioned medium from mouse embryonic astrocytes in primary culture and Dulbecco's modified Eagles medium with high glucose (Invitrogen) supplemented with 10% fetal calf serum, penicillin (100 U/ml), and streptomycin (100 µg/ml). When cells reached 90 % confluence, C-MEM was replaced with Opti-MEM (Invitrogen) and transfected with Lipofectamine 2000 (Invitrogen) for 24 h.
The next day, confluent GT1-7 cells were treated as described previously. The concentration of GnRH in the media was assayed using an LH-releasing hormone enzyme immunoassay kit (S-1217, Peninsula Laboratories, LLC, San Carlos, CA) according to the manufacturer's instructions.

[8] = biological target: T2, GRIA1^Ser (Bos taurus, UniProt G0T3G6); assay: Whole-cell current responses in Xenopus oocytes injected with GRIA1^Ser mRNA; assay type: cell-based, bovine; details: Xenopus oocytes expressing GRIA1^Ser alone, glutamate 1-300 µM, n = 10; read-out: EC50 of current response
T2 construct: expressed in transfected cells; host or cells: Xenopus oocytes (mRNA injection)
T2 sequence (G0T3G6 19-906): as the sequence (G0T3G6 19-906 S306N) above, with N288S counted along it
Experimental: as §3

[9] = tested on: GRIA1^Asn with GRIA2; assay: Whole-cell current responses in Xenopus oocytes coexpressing GRIA1^Asn with GRIA2; assay type: cell-based, bovine; details: Xenopus oocytes expressing GRIA1^Asn coexpressed with GRIA2, n = 8; read-out: EC50 of current response
Experimental: as §3

SMILES | Kd [1] | LH release [2] | Kd [3] | Kd [4] | EC50 [5] | EC50 [6] | GnRH release [7] | EC50 [8] | EC50 [9]
Cc1o[nH]c(=O)c1CC(N)C(=O)O (stereo not drawn) [AMPA] | 0.0436 µM | induces LH release | 0.0277 µM | 0.0596 µM | – | – | – | – | –
N[C@@H](CCC(=O)O)C(=O)O [glutamate] | – | – | – | – | 4.9 µM | 10.7 µM | induced the release of more GnRH than that from cells expressing GRIA1^Asn | 4.5 µM | 10.4 µM
